Values quoted from earlier work as cited in US20050188697A1, “Fluorinated ketone and fluorinated ethers as working fluids for thermal energy conversion” (HONEYWELL CORPORATION, priority 2004, published 2005).

What was measured:
[1] = at 1 atmosphere
[2] = for Critical Temperature, Tc: Table 4 input

In the case of `FC(F)(F)C(Cl)Cl` [HCFC-123, 1,1-dichloro-2,2,2-trifluoroethane, reference compound], the “temperature at which toxic HCFC-133a is formed” value (thermal decomposition) is listed as “below 300 ° F”, the “maximum temperature (thermal limitation)” value (to avoid formation of toxic HCFC-133a via thermal decomposition) is listed as 121.0 °C and the “Flame Limits” value [1] is listed as “None”. For the same compound, the “Critical Temperature, Tc” value [2] was 183.6 °C and the “Heat Capacity (liquid, 25° C.)” value [2] was 160.3 J/g-mol K.
In the case of `FC(F)CC(F)(F)F` [HFC-245fa, 1,1,1,3,3-pentafluoropropane, reference compound], the “Flame Limits” value [1] is listed as “None”, the “Critical Temperature, Tc” value [2] is listed as 151.1 °C and the “Heat Capacity (liquid, 25° C.)” value [2] is listed as 185.5 J/g-mol K.
In the case of `COC(F)(F)C(F)(F)C(F)(F)C(F)(F)F` [Methyl (perfluorobutyl) ether, 1-methoxynonafluorobutane], the “Flame Limits” value [1] is listed as “None”, the “Critical Temperature, Tc” value [2] is listed as 195.3 °C and the “Heat Capacity (liquid, 25° C.)” value [2] is listed as 293.8 J/g-mol K.
In the case of `COC(F)(F)C(F)(F)C(F)(F)F` [Methyl (perfluoropropyl) ether, 1-methoxyheptafluoropropane], the “Flame Limits” value [1] is listed as “None”, the “Critical Temperature, Tc” value [2] is listed as 165.0 °C and the “Heat Capacity (liquid, 25° C.)” value [2] is listed as 260.0 J/g-mol K.
For `O=C(C(F)(F)C(F)(F)F)C(F)(C(F)(F)F)C(F)(F)F` [Perfluoroethyl perfluoroisopropyl ketone, dodecafluoro-2-methylpentan-3-one], the “Flame Limits” value [1] is given as “None”, the “Critical Temperature, Tc” value [2] is given as 168.7 °C and the “Heat Capacity (liquid, 25° C.)” value [2] is given as 348.5 J/g-mol K.
